The values that follow are results of earlier work, collected in patent US20070015719A1 (Elan Pharma International Limited, priority 2005, published 2007).

The conditions of this data set: in acidic solutions.

On to “6-o-methyl erythromycin A [clarithromycin]”, for which the stability result is on record as “stable”.
